Test results taken from ChEMBL document CHEMBL4507259 (2021).

Tests used:
[1] = molecular target: Serine/threonine-protein kinase 25 (Homo sapiens) (UniProt O00506); conditions: Compound concentration 1000.0 nM
[2] = molecular target: 5-hydroxytryptamine receptor 6 (Homo sapiens) (UniProt P50406); conditions: Compound concentration 10.0 uM
[3] = molecular target: Mitogen-activated protein kinase kinase kinase kinase 5 (Homo sapiens) (UniProt Q9Y4K4); conditions: Compound concentration 1000.0 nM
[4] = molecular target: Serine/threonine-protein kinase WNK2 (Homo sapiens) (UniProt Q9Y3S1); conditions: Compound concentration 1000.0 nM
[5] = tested on: Tyrosine-protein kinase ABL1 (Homo sapiens), P00519 [M351T]; conditions: Compound concentration 1000.0 nM
[6] = tested on: Epidermal growth factor receptor (Homo sapiens), P00533 [G719S]; conditions: Compound concentration 1000.0 nM
[7] = molecular target: Aurora kinase B (Homo sapiens) (UniProt Q96GD4); conditions: Compound concentration 1000.0 nM
[8] = molecular target: Serine/threonine-protein kinase tousled-like 1 (Homo sapiens) (UniProt Q9UKI8); conditions: Compound concentration 1000.0 nM
[9] = molecular target: Beta-2 adrenergic receptor (Homo sapiens) (UniProt P07550); conditions: Compound concentration 10.0 uM
[10] = molecular target: Homeodomain-interacting protein kinase 3 (Homo sapiens) (UniProt Q9H422); conditions: Compound concentration 1000.0 nM
[11] = molecular target: Serine/threonine-protein kinase SBK1 (Homo sapiens) (UniProt Q52WX2); conditions: Compound concentration 1000.0 nM
[12] = tested on: Mast/stem cell growth factor receptor Kit (Homo sapiens), P10721 [D816V]; conditions: Compound concentration 1000.0 nM
[13] = molecular target: Calcium/calmodulin-dependent protein kinase type 1D (Homo sapiens) (UniProt Q8IU85); conditions: Compound concentration 1000.0 nM
[14] = molecular target: Mitogen-activated protein kinase 1 (Homo sapiens) (UniProt P28482); conditions: Compound concentration 1000.0 nM
[15] = molecular target: Tyrosine-protein kinase Blk (Homo sapiens) (UniProt P51451); conditions: Compound concentration 1000.0 nM
[16] = molecular target: TGF-beta receptor type-2 (Homo sapiens) (UniProt P37173); conditions: Compound concentration 1000.0 nM
[17] = molecular target: Serine/threonine-protein kinase STK11 (Homo sapiens) (UniProt Q15831); conditions: Compound concentration 1000.0 nM
[18] = molecular target: Tyrosine-protein kinase Fer (Homo sapiens) (UniProt P16591); conditions: Compound concentration 1000.0 nM
[19] = molecular target: Serine/threonine-protein kinase 16 (Homo sapiens) (UniProt O75716); conditions: Compound concentration 1000.0 nM
[20] = molecular target: Sigma intracellular receptor 2 (Homo sapiens, UniProt Q5BJF2); assay: GPCRScan assay: inhibition of Sigma 2; set-up: radioligand conc. used [nm] 5.0, parental cells HEKT
[21] = molecular target: Tyrosine-protein kinase Yes (Homo sapiens) (UniProt P07947); conditions: Compound concentration 1000.0 nM
[22] = molecular target: Ribosomal protein S6 kinase alpha-3 (Homo sapiens) (UniProt P51812); conditions: Compound concentration 1000.0 nM
[23] = molecular target: Eukaryotic translation initiation factor 2-alpha kinase 1 (Homo sapiens) (UniProt Q9BQI3); conditions: Compound concentration 1000.0 nM
[24] = molecular target: Mitogen-activated protein kinase kinase kinase 7 (Homo sapiens) (UniProt O43318); conditions: Compound concentration 1000.0 nM
[25] = molecular target: 1-phosphatidylinositol 3-phosphate 5-kinase (Homo sapiens) (UniProt Q9Y2I7); conditions: Compound concentration 1000.0 nM
[26] = molecular target: Hormonally up-regulated neu tumor-associated kinase (Homo sapiens) (UniProt P57058); conditions: Compound concentration 1000.0 nM
[27] = molecular target: Histamine H2 receptor (Homo sapiens) (UniProt P25021); conditions: Compound concentration 10.0 uM
[28] = molecular target: Phosphatidylinositol 4,5-bisphosphate 3-kinase catalytic subunit alpha isoform (Homo sapiens) (UniProt P42336); conditions: Compound concentration 1000.0 nM
[29] = molecular target: Serine/threonine-protein kinase 33 (Homo sapiens) (UniProt Q9BYT3); conditions: Compound concentration 1000.0 nM
[30] = molecular target: Tyrosine-protein kinase CSK (Homo sapiens) (UniProt P41240); conditions: Compound concentration 1000.0 nM
[31] = molecular target: Leucine-rich repeat serine/threonine-protein kinase 2 (Homo sapiens) (UniProt Q5S007); conditions: Compound concentration 1000.0 nM
[32] = molecular target: 5-hydroxytryptamine receptor 2B (Homo sapiens, UniProt P41595); conditions: Compound concentration 10.0 uM
[33] = molecular target: Protein-tyrosine kinase 6 (Homo sapiens) (UniProt Q13882); conditions: Compound concentration 1000.0 nM
[34] = tested on: Phosphatidylinositol 4,5-bisphosphate 3-kinase catalytic subunit alpha isoform (Homo sapiens), P42336 [E545A]; conditions: Compound concentration 1000.0 nM
[35] = molecular target: Cyclin-dependent kinase 4 (Homo sapiens) (UniProt P11802); conditions: Compound concentration 1000.0 nM
[36] = molecular target: Sigma non-opioid intracellular receptor 1 (Homo sapiens) (UniProt Q99720); conditions: Compound concentration 10.0 uM
[37] = molecular target: Cyclin-dependent kinase 2 (Homo sapiens) (UniProt P24941); conditions: Compound concentration 1000.0 nM
[38] = molecular target: Vasopressin V1a receptor (Homo sapiens) (UniProt P37288); assay: V1a (h) CEREP ligand profiling; conditions: filed as agonist, Compound concentration 10.0 uM
[39] = tested on: Receptor-type tyrosine-protein kinase FLT3 (Homo sapiens), P36888 [UNDEFINED MUTATION]; conditions: Compound concentration 1000.0 nM
[40] = molecular target: Serine/threonine-protein kinase MRCK beta (Homo sapiens) (UniProt Q9Y5S2); conditions: Compound concentration 1000.0 nM
[41] = molecular target: MAP/microtubule affinity-regulating kinase 3 (Homo sapiens) (UniProt P27448); conditions: Compound concentration 1000.0 nM
[42] = molecular target: Myosin light chain kinase 2, skeletal/cardiac muscle (Homo sapiens) (UniProt Q9H1R3); conditions: Compound concentration 1000.0 nM
[43] = molecular target: RAF proto-oncogene serine/threonine-protein kinase (Homo sapiens) (UniProt P04049); conditions: Compound concentration 1000.0 nM
[44] = molecular target: Ephrin type-B receptor 4 (Homo sapiens) (UniProt P54760); conditions: Compound concentration 1000.0 nM
[45] = molecular target: Mitogen-activated protein kinase kinase kinase 1 (Homo sapiens) (UniProt Q13233); conditions: Compound concentration 1000.0 nM

Chain of Sigma intracellular receptor 2 (Q5BJF2 whole entry): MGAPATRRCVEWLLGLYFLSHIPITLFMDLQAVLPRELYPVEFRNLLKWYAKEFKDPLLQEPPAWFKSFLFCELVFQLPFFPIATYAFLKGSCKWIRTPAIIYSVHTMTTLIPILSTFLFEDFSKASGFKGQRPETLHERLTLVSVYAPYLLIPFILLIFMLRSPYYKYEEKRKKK
Chain of Serine/threonine-protein kinase 25 (Homo sapiens) (O00506 whole entry, looked up): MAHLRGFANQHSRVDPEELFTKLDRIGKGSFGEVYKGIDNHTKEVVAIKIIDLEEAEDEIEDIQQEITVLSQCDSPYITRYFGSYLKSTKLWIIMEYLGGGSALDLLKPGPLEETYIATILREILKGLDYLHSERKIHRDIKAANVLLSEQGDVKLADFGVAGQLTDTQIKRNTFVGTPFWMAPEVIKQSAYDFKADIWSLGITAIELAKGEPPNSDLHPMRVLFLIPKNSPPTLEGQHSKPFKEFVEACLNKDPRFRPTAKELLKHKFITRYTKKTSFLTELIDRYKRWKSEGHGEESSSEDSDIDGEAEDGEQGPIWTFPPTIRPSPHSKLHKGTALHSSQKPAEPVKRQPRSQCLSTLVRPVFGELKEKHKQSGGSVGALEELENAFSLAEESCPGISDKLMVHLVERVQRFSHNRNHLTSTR
Chain of Serine/threonine-protein kinase 16 (Homo sapiens) (O75716 whole entry): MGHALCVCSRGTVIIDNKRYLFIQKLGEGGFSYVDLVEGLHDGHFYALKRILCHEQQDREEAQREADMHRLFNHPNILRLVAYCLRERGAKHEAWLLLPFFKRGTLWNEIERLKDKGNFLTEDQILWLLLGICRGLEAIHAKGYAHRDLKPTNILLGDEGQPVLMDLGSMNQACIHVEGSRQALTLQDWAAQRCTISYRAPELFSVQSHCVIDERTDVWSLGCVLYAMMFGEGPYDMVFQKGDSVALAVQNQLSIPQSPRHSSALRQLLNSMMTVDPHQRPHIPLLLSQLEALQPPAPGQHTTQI
Chain of Homeodomain-interacting protein kinase 3 (Homo sapiens) (Q9H422 whole entry, looked up): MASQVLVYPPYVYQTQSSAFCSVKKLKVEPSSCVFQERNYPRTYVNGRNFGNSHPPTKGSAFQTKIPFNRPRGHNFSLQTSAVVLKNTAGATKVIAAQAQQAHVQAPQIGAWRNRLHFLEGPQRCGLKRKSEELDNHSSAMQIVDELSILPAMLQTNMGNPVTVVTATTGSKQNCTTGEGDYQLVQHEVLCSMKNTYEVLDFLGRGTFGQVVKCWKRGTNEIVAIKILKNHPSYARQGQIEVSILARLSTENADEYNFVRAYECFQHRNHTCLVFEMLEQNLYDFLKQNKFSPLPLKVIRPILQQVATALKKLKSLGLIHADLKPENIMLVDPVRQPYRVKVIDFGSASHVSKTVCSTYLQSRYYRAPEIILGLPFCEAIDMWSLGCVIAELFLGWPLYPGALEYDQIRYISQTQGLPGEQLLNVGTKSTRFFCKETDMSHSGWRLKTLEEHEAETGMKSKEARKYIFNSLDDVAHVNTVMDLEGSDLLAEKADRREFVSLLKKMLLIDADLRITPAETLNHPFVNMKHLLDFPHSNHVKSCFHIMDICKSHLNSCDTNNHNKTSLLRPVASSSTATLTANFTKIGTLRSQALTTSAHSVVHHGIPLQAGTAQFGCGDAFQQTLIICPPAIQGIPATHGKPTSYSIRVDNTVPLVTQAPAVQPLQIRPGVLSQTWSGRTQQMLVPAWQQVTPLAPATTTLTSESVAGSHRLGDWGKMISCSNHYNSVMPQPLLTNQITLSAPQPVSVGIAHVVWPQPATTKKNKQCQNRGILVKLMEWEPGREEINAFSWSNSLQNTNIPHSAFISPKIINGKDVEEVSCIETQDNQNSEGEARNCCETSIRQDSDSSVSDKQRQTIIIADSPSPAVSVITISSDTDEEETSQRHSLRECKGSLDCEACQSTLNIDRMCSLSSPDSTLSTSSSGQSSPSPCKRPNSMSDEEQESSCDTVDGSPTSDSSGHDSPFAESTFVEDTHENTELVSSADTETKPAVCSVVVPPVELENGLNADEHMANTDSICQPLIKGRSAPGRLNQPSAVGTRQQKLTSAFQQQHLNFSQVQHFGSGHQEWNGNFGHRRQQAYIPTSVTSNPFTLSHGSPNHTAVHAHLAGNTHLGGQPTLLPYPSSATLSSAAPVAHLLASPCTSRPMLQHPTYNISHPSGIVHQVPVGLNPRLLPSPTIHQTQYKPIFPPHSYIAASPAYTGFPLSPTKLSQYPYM
Chain of Tyrosine-protein kinase Yes (Homo sapiens) (P07947 2-543 limits assumed): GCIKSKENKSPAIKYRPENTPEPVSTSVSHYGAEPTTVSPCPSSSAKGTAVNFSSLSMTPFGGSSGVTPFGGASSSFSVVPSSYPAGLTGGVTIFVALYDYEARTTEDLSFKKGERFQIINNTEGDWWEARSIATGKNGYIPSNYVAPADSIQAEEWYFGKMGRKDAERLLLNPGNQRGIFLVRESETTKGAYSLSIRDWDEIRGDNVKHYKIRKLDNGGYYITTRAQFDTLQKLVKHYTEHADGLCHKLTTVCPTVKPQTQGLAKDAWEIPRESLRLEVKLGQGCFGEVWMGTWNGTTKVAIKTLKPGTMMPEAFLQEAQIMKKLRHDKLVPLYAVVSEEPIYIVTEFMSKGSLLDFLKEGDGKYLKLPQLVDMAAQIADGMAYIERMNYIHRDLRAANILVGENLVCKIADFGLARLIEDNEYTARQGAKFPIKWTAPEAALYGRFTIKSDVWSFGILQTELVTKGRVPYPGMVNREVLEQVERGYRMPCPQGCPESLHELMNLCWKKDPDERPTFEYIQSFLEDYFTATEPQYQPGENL
Chain of Serine/threonine-protein kinase 33 (Homo sapiens) (Q9BYT3 whole entry, looked up): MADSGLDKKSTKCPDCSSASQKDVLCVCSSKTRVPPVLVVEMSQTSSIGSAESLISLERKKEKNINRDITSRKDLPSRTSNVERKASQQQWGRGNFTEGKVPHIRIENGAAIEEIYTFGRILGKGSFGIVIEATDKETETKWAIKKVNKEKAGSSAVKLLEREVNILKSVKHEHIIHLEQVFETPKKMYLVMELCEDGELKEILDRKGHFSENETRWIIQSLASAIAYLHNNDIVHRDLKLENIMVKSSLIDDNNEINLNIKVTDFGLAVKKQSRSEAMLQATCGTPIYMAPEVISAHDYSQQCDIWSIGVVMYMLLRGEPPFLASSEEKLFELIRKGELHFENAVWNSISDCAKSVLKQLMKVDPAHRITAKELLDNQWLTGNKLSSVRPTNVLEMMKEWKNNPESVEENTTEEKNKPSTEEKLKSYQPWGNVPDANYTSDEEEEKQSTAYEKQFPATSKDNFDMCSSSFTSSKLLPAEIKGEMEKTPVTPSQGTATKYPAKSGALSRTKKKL
Chain of TGF-beta receptor type-2 (Homo sapiens) (P37173 whole entry): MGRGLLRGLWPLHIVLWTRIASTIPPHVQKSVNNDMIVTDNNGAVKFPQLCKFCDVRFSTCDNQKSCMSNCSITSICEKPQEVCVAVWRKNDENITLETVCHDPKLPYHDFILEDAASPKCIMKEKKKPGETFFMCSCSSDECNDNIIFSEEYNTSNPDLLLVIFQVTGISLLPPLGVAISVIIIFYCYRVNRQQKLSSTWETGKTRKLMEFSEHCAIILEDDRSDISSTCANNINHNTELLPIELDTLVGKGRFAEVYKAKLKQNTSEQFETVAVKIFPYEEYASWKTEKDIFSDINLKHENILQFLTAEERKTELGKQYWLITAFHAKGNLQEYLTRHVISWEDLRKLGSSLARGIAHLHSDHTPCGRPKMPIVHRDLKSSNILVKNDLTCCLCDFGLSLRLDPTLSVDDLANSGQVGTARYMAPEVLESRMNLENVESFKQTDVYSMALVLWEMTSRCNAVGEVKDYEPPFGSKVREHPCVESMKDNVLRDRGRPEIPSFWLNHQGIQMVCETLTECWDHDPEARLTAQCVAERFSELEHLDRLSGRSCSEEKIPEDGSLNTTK
Chain of Serine/threonine-protein kinase STK11 (Homo sapiens) (Q15831 whole entry): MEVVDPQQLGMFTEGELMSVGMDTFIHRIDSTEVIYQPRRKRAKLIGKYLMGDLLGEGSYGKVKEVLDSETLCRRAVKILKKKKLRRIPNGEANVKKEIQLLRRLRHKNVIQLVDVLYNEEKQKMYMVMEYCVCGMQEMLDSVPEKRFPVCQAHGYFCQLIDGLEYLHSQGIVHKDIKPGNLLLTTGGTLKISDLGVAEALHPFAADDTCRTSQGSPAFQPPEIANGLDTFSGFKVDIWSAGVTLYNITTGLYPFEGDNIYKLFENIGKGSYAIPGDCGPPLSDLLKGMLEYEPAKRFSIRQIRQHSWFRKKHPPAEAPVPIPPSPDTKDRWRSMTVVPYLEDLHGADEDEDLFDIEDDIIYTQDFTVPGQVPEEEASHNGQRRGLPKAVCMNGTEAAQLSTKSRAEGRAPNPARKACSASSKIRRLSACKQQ
Chain of Cyclin-dependent kinase 4 (Homo sapiens) (P11802 whole entry): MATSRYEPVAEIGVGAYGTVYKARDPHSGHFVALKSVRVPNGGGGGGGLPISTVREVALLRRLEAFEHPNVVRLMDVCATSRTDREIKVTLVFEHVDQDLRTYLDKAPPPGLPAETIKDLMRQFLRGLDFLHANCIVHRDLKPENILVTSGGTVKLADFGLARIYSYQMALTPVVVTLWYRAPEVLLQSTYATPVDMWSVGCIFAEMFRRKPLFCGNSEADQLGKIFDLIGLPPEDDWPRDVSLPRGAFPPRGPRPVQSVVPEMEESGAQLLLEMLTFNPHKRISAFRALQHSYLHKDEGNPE
Chain of Mitogen-activated protein kinase 1 (Homo sapiens) (P28482 whole entry): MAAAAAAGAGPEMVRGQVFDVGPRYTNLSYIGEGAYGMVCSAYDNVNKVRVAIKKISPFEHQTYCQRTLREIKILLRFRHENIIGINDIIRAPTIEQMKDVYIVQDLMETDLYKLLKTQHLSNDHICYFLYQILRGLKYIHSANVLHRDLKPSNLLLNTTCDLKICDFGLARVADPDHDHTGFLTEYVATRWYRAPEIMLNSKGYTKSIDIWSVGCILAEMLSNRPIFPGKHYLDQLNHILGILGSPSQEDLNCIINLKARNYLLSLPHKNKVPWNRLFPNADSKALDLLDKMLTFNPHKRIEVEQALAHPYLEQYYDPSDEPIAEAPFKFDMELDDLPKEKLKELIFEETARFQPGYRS

CNC(=O)Nc1ccc2c(c1)[C@@]1(CC2)OC(=O)N(CC(=O)N(Cc2ccc(F)cc2)[C@@H](C)C(F)(F)F)C1=O [A-486]
residual activity [1]: 100% | inhibition [2]: 24.1% | residual activity [3]: 100% | residual activity [4]: 59% | residual activity [5]: 88% | residual activity [6]: 100% | residual activity [7]: 93% | residual activity [8]: 100% | inhibition [9]: 24.7% | residual activity [10]: 90% | residual activity [11]: 75% | residual activity [12]: 96% | residual activity [13]: 100% | residual activity [14]: 91% | residual activity [15]: 100% | residual activity [16]: 95% | residual activity [17]: 100% | residual activity [18]: 79% | residual activity [19]: 99% | Ki ([20]; read-out: Ki): 3.27 µM | residual activity [21]: 85% | residual activity [22]: 84% | residual activity [23]: 96% | residual activity [24]: 81% | residual activity [25]: 72% | residual activity [26]: 100% | inhibition [27]: 6.93% | residual activity [28]: 28% | residual activity [29]: 100% | residual activity [30]: 100% | residual activity [31]: 71% | inhibition [32]: 29.2% | residual activity [33]: 90% | residual activity [34]: 97% | residual activity [35]: 75% | inhibition [36]: 17.7% | residual activity [37]: 100% | inhibition [38]: 23% | residual activity [39]: 87% | residual activity [40]: 80% | residual activity [41]: 100% | residual activity [42]: 77% | residual activity [43]: 100% | residual activity [44]: 91% | residual activity [45]: 95%

CNC(=O)Nc1ccc2c(c1)CC[C@@]21OC(=O)N(CC(=O)N(Cc2ccc(F)cc2)[C@@H](C)C(F)(F)F)C1=O [A-485]
residual activity [1]: 99% | inhibition [2]: 32.6% | residual activity [3]: 88% | residual activity [4]: 100% | residual activity [5]: 100% | residual activity [6]: 95% | residual activity [7]: 86% | residual activity [8]: 88% | inhibition [9]: 19% | residual activity [10]: 73% | residual activity [11]: 79% | residual activity [12]: 70% | residual activity [13]: 94% | residual activity [14]: 91% | residual activity [15]: 100% | residual activity [16]: 90% | residual activity [17]: 100% | residual activity [18]: 87% | residual activity [19]: 84% | Ki ([20]; read-out: Ki): 5.53 µM | Ki ([20]; read-out: pKi (converted)): 5.13 µM | residual activity [21]: 76% | residual activity [22]: 87% | residual activity [23]: 80% | residual activity [24]: 77% | residual activity [25]: 58% | residual activity [26]: 100% | inhibition [27]: 28.2% | residual activity [28]: 83% | residual activity [29]: 100% | residual activity [30]: 100% | residual activity [31]: 79% | inhibition [32]: 81.4% | residual activity [33]: 87% | residual activity [34]: 91% | residual activity [35]: 91% | inhibition [36]: 34.5% | residual activity [37]: 100% | inhibition [38]: 10% | residual activity [39]: 87% | residual activity [40]: 73% | residual activity [41]: 100% | residual activity [42]: 84% | residual activity [43]: 100% | residual activity [44]: 80% | residual activity [45]: 68%
